Structures can show the parent of a compound that is named as a salt.
How the values were obtained:
normal ICR mice = assay: Oral glucose tolerance test in normal ICR mice; assay type: in vivo; conditions: male ICR mice, 30 minutes after 2.5 g/kg glucose
Method: Normal male ICR mice were randomly grouped according to weights, 6 mice in each group. The groups included a blank control group as well as different doses of the treatment groups as follows:
Animals in each group had been fasted for 6 hours, and then pretreated with compounds or double distilled water by gavage respectively in single administration. 30 minutes later, animals were administered 2.5 g/kg glucose by gavage. Before administration and after administration of glucose at 30, 60 and 120 minuets, blood was taken to determine serum glucose levels.
Serum glucose is determined by glucose kit. 250 μl working enzyme solution was taken, and then 5 μl serum was added to the solution. A blank tube (5 μl double distilled water was added) and a standard tube (5 μl glucose standard solution was added) were established simultaneously, shaking respectively, and in 37° C. water bath for 20 minutes. The blank tube was tuned with, and then calorimetric assay was determined at OD505 nm. Serum glucose concentration (BG, mmol/l)=ODsample tube/ODstandard tube×5.55 Data Processing and Statistical Analysis: • 1. Mean±SD and Student-t test were used in data statistical analysis. • 2. The percentage of blood glucose decline in 30 minutes after sugar administration as well as the area under the curve (AUC) was calculated.

[1] = system: type II diabetes KKAy mice; assay: Oral glucose tolerance test in type II diabetes KKAy mice; assay type: in vivo
Method: Normal KKAy mice had been fasted for 6 hours, and then were randomly grouped according to weights and fasting blood glucose, 5 mice in each group. The groups included a blank control group as well as different doses of the treatment groups as follows:
30 minutes later, animals were administered 2.5 g/kg (female KKAy mice) or 1.5 g/kg (male KKAy mice) glucose by gavage. After administration of glucose at 30, 60 and 120 minuets, serum glucose levels were determined by Glucometer.
• 3. Mean±SD and Student-t test or Anova were used in data statistical analysis. • 4.

DPPIV = target: T1, DPPIV (Homo sapiens, UniProt P27487); assay: Selective activity determination of DPPIV inhibitors, recombinant enzyme, fluorescence substrate; assay type: biochemical
T1 construct: made in house; host or cells: insect expression system
Text: (§1) It can cut off the first two amino acids in many of the N-peptide to change or lose its biological activity. Gene knockout animal and human experiments indicate that reducing DPPIV activity effectively and specifically in vivo can improve blood insulin content and lower blood sugar levels, so as to improve the symptoms of diabetes effectively.
(§2) By using the insect expression system, the recombinant proteins of DPPIV, DPP8, DPP9 and QPP had been obtained. The activities of the […] enzymes were detected by fluorescence Substrate. The inhibitory effects of compounds were evaluated by the effects of different compounds on inhibiting enzyme activities. Positive reference compound was LAF237.

QPP = target: T2, QPP (Homo sapiens, UniProt Q9UHL4); assay: as above; assay type: biochemical; conditions: recombinant protein from insect expression system
T2 construct: made in house; host or cells: insect expression system
Text: as §1, §2

FAP = target: T3, FAP (Homo sapiens, UniProt Q12884); assay: Selective activity determination of DPPIV inhibitors, fluorescence substrate; assay type: biochemical
T3 sequence (Q12884 1-760): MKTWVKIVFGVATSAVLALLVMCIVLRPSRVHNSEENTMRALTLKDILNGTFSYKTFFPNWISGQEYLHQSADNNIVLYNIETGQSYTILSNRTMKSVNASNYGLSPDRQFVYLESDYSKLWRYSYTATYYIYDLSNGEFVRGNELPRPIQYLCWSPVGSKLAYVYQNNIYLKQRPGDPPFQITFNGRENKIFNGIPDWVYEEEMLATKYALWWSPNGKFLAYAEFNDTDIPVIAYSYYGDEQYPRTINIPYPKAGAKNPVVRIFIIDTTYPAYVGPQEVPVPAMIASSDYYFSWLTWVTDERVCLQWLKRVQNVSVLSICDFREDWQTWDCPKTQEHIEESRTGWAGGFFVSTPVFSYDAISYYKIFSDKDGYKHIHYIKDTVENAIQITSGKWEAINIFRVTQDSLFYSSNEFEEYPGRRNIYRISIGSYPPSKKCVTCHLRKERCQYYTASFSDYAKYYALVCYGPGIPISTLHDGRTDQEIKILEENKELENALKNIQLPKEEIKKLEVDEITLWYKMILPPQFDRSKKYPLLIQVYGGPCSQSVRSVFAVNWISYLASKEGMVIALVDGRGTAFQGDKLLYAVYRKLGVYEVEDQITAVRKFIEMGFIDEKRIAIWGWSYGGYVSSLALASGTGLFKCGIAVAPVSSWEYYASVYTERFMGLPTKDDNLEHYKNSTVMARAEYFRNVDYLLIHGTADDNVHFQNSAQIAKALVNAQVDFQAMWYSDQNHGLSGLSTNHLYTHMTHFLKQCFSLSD
Text: as §1, §2

[2] = Test 1, high dose (10 mg/kg by gavage)
[3] = Test 1, low dose (1 mg/kg by gavage)
[4] = Test 1, middle dose (3 mg/kg by gavage)
[5] = Test 2, high dose (10 mg/kg by gavage)
[6] = Test 2, low dose (1 mg/kg by gavage)
[7] = Test 2, middle dose (3 mg/kg by gavage)
[8] = female KKAy mice, 10 mg/kg by gavage, 30 minutes after 2.5 g/kg glucose
[9] = male KKAy mice, 10 mg/kg by gavage, 30 minutes after 1.5 g/kg glucose
[10] = male KKAy mice, 30 mg/kg by gavage, 30 minutes after 1.5 g/kg glucose

T1 sequence (P27487 whole entry): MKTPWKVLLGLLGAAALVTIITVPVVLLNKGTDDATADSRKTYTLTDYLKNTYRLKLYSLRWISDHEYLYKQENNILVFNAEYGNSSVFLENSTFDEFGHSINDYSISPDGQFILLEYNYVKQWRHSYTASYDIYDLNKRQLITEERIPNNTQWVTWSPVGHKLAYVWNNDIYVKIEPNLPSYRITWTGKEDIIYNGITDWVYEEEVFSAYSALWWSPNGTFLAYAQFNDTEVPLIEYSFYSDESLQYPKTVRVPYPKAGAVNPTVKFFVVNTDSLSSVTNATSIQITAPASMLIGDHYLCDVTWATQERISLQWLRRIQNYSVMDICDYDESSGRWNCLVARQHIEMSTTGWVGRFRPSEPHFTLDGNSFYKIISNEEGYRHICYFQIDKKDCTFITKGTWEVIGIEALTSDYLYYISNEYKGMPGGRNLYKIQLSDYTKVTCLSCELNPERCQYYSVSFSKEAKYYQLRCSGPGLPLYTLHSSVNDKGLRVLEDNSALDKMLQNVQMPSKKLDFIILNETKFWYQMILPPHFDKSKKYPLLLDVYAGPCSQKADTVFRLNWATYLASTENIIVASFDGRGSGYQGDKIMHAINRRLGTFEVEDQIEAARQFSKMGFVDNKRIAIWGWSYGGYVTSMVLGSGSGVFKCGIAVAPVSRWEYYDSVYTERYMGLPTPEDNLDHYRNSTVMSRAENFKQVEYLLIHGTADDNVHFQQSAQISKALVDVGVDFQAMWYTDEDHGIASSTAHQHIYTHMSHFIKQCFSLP

| SMILES | percentage of blood glucose decreased vs control group (normal ICR mice; [2]) | percentage of blood glucose decreased vs control group (normal ICR mice; [3]) | percentage of blood glucose decreased vs control group (normal ICR mice; [4]) | percentage of blood glucose decreased vs control group (normal ICR mice; [5]) | percentage of blood glucose decreased vs control group (normal ICR mice; [6]) | percentage of blood glucose decreased vs control group (normal ICR mice; [7]) | percentage of blood glucose decreased vs control group ([1]; female KKAy mice, 3 mg/kg by gavage, 30 minutes after 2.5 g/kg glucose) | percentage of blood glucose decreased vs control group [1, 8] | percentage of blood glucose decreased vs control group [1, 9] | percentage of blood glucose decreased vs control group [1, 10] | IC50 (DPPIV) | IC50 (QPP) | IC50 (FAP) |
| --- | --- | --- | --- | --- | --- | --- | --- | --- | --- | --- | --- | --- | --- |
| CN(C)C(=O)N1C[C@H]2C[C@@H](NCC(=O)N3CCC[C@H]3C#N)C[C@H]2C1 (relative stereo) [Example 1, cis-5-[2-(2-Cyano-pyrrolidin-1-yl)-2-oxo-ethylamino]-hexahydro-cyclopenta[c]pyrrole-2-carboxylic acid dimethylamide hydrochloride] | 31.85% | 19.16% | 22.85% | 32.05% | 26.10% | 30.24% | 40.63% | 24.68% | 16.22% | 17.15% | – | – | – |
| COC(=O)N1C[C@H]2C[C@@H](NCC(=O)N3CCC[C@H]3C#N)C[C@H]2C1 (relative stereo) [Example 2, cis-5-[2-(2-Cyano-pyrrolidin-1-yl)-2-oxo-ethylamino]-hexahydro-cyclopenta[c]pyrrole-2-carboxylic acid methyl ester hydrochloride] | 26.93% | 25.54% | 25.92% | 27.75% | 24.51% | 26.96% | – | 21.55% | 13.79% | 12.23% | 98 ± 36.4 nM | > 56000 nM | 476 ± 112 nM |

Source: US8178575B2, “Derivatives of azabicyclo octane, the method of making them and the uses thereof as inhibitors of dipeptidyl peptidase IV” (Shanghai Hengrui Pharmaceutical Co., Ltd., priority 2007, dated 2012)
